Laboratory results reported in US6613317B1, “Volatile attractants for diabrotica species” (priority 1988, dated 2003).
Marks after values point to notes of the source that are not given here.

Experiments:
[1] = system: southern corn rootworm (SCR) adults; assay: Sticky trap attraction in sweet corn plots (Example 1); assay type: in vivo, Diabrotica undecimpunctata howardi; conditions: for Mean number of SCR per trap (±standard deviation): n = 4
How it was run: (§1)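 Field trapping in sweet-corn plots beside a Blue Hubbard squash trap crop; lures on mineral-oil-impregnated cotton wicks atop sticky paper-carton traps on 1-m posts, 4 replicates in randomized complete blocks. Beetles counted after 24 h; VIPAE/VIP/TIC mixtures and single components at 1–300 mg per trap, ANOVA/Duncan at P=0.05.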

[2] = system: western corn rootworm (WCR) adults; assay: as above; assay type: in vivo, Diabrotica virgifera virgifera; conditions: for Mean number of WCR per trap (±standard deviation): n = 4
How it was run: as §1

[3] = system: D. u. howardi adults; assay type: in vivo, Diabrotica undecimpunctata howardi; conditions: TEX×PEP bait with 0.1% methomyl alone or with 1% veratrole added
Excerpt: A noncucurbit carrier, 10-mesh corn grits (71% of which passed through a 2-mm screen), was obtained from Illinois Cereal Mills, Paris, Ill. (designated as pesticide carrier grits, 980). This carrier was impregnated with different levels of cucurbitacins by addition of varying amounts of a chloroform extract of AND×MAX fruit containing 0.12% cucurbitacins B and D (Metcalf, et al., Proc. Natl. Acad. Sci. USA, 77:3769-3772 (1980), Metcalf, et al., Environ. Entomol., 11:921-927 (1982)). The cucurbitacin-containing areas were scraped from plates, extracted in anhydrous methanol, centrifuged, and the UV absorption at 210 nm determined by UV spectrophotometry. Content of cucurbitacins was quantified from standard curves of pure cucurbitacins B, D, E and I, and E-glycoside (Metcalf, et al., Proc. Natl. Acad. Sci. USA, 77:3769-3772 (1980), Metcalf, et al., Environ. Entomol., 11:921-927 (1982)).
The various dried, ground, and insecticide-treated baits were given preliminary field evaluation by placing uniform amounts in petri-dish halves (150-mm diameter) that were placed at random on the ground in cucurbit and corn rows heavily infested ith SCR, WCR, and SCB adults. Ten dishes were used for each treatment; the maximum dosage of dried baits used was 300 mg per dish, equivalent to […]. Mortality counts of adult beetles in the dishes were made after 20-40 h.

[4] = system: D. barberi; assay: Sticky trap attraction in prairie habitat, Trelease Woods (Example 2); assay type: in vivo, Diabrotica barberi; conditions: August 11, 1987; 100 mg per trap; n = 4
How it was run: (§2)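 Lure-dosed cotton wicks (solids in acetone; untreated controls) on TangleTrap-coated cartons atop 1 m posts, four replicates 10 m apart in relict prairie, mid-August over two years. Read-out: mean beetles caught after 24-h; log-transformed ANOVA with Duncan's multiple range test.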

[5] = system: D. cristata; assay: as above; assay type: in vivo, Diabrotica cristata; conditions: August 11, 1987; 100 mg per trap; n = 4
How it was run: as §2

[6] = system: D. v. virgifera; assay: as above; assay type: in vivo, Diabrotica virgifera virgifera; conditions: August 11, 1987; 100 mg per trap; n = 4
How it was run: as §2

[7] = system: D. u. howardi; assay: as above; assay type: in vivo, Diabrotica undecimpunctata howardi; conditions: August 11, 1987; 100 mg per trap; n = 4
How it was run: as §2

[8] = system: D. barberi; assay: Sticky trap attraction along hybrid corn, Pomology South Farms (Example 2); assay type: in vivo, Diabrotica barberi; conditions: 100 mg per trap, n = 4
Experimental: (§3) The candidate lures in all experiments were purchased commercially and exceeded 98% purity. The test chemicals were applied by capillary micropipettes to cotton dental wicks which were attached to the tops of 1.0 liter cylindrical paper cartons covered with TangleTrap™ (Tanglefoot Co., Grand Rapids, Mich.). The sticky trap techniques used were as described in Example 1. Cinnamyl alcohol and para-methoxycinnamaldehyde, which are solids, were dissolved in glass-distilled acetone prior to dosing the cotton wicks. All treatments were applied at a dosage of 100 mg per trap. 1,2,4-trimethoxybenzene, indole, and trans-cinnamaldehyde were mixed in a ratio of 1:1:1, by weight, immediately prior to dosing the cotton wicks. Control traps had untreated cotton wicks. Four replicates of treated and untreated traps were randomly positioned 10 meters apart on top of 1 m high posts along the border of a eight foot wide strip cut through the middle of a 4.05 ha relict prairie at Trelease Woods (ca. two miles northeast of Urbana, Ill.). The field consisted primarily of Andropogon gerardii Vitman (big bluestem) and a variety of composites. The tests were conducted in mid-August of two years and were timed to coincide with the presence of D. cristata and D. barberi adults in the flower heads of Canada thistle (Carduus arvensis Robson). In the second year, several new attractants of D. v. virgifera and D. barberi were tested in Trelease Woods and along the edge of a 0.8 ha field of hybrid corn located at the Pomology South Farms, Urbana, Ill. Attraction of Diabrotica species to the various lures was measured by the mean number of beetles caught after 24-h. On one date in late August of the first year, D. cristata and D. barberi were removed from the traps and sexed in the laboratory. The significance of treatments in all tests was determined by an analysis of variance and the individual means were separated by Duncan's multiple range test (Statistical Package for Social Science, Nie, et al., SPSS: statistical package for the social sciences, 2nd ed. McGraw-Hill, New York (1975). Data were logarithmically transformed for statistical analysis and the means and standard deviations are presented for the untransformed data.

[9] = system: D. v. virgifera; assay: as above; assay type: in vivo, Diabrotica virgifera virgifera; conditions: 100 mg per trap, n = 4
Experimental: as §3

[10] = system: D. u. howardi; assay: as above; assay type: in vivo, Diabrotica undecimpunctata howardi; conditions: 100 mg per trap, n = 4
Experimental: as §3

[11] = system: western corn rootworm (WCR) adults; assay: Sticky trap attraction in corn, estragole analogues (Example 3); assay type: in vivo, Diabrotica virgifera virgifera; conditions: for Mean number of WCR adults per sticky trap (±standard deviation) after 24 hours / Mean number of WCR (±standard deviation) per sticky trap after 24 hours: 100 mg per trap, n = 4
How it was run: (§4)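 Cotton wicks dosed with 100 mg or 100 μL attractant per trap on TangleTrap-coated cartons, four replicates 10 m apart on 1 m posts at field edges of hybrid or sweet corn. Mean beetles caught after ~24 h; log-transformed ANOVA with Duncan's test, P=0.05.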

[12] = system: southern corn rootworm (SCR) adults; assay: as above; assay type: in vivo, Diabrotica undecimpunctata howardi; conditions: 100 mg per trap, n = 4
How it was run: as §4

[13] = system: northern corn rootworm (NCR) adults; assay: as above; assay type: in vivo, Diabrotica barberi; conditions: 100 mg per trap, n = 4
Experimental: (§5) Test chemicals were applied by capillary micropipettes to cotton dental wicks that were attached to tops of 1.0 liter cylindrical paper cartons covered with TangleTrap™, Grand Rapids, Mich. The trapping techniques used were as previously described in Example 1. Cinnamyl alcohol, 4-methoxycinnamaldehyde, cinnamyl acetate, and 4-(4′methoxyphenyl)-3-butene-2-one which are solids at ambient temperature were prepared as standard w/v solutions in acetone prior to dosing the cotton wicks. All treatments were made at a dosage of 100 mg or 100 μL of attractant per trap. Control traps had untreated wicks. Four replicates of treated and untreated traps were positioned randomly 10 meters apart on top of 1 m high posts along the edges of 25-50 ha. fields of hybrid corn (Zea mays), infested with adult NCR, SCR, and WCR beetles. Several experiments detailed in the Tables were made in a 0.4 ha plot of sweet corn (Illini X-tra Sweet).
(§6) Attraction of Diabrotica species adults of the sticky traps was measured by the mean number of beetles caught after 1 day (ca. 24 hours) exposure. The significance of the treatments was determined by analysis of variance and the individual means were separated by Duncan's multiple range test (Statistical Package for the Social Sciences, Nie, et al., 2nd. ed. McGraw-Hill, New York (1975). The data was logarithmically transformed for statistical analysis. Means and standard deviations are presented for the untransformed data. Significance levels were set at P=0.05 for all statistical analyses.

[14] = system: northern corn rootworm (NCR); assay: Sticky trap attraction in corn, phenylethanol analogues (Example 6); assay type: in vivo, Diabrotica barberi; conditions: 100 mg per trap, four replicates, 24 hour
Experimental: as §5, with “chemicals (purchased from Aldrich Chemical Co.; Milwaukee, Wis.)” for “chemicals”, “Unless otherwise indicated, all” for “Cinnamyl alcohol, 4-methoxycinnamaldehyde, cinnamyl acetate, and 4-(4′methoxyphenyl)-3-butene-2-one which are solids at ambient temperature were prepared as standard w/v solutions in acetone prior to dosing the cotton wicks. All”
as §6

[15] = system: western corn rootworm (WCR); assay: as above; assay type: in vivo, Diabrotica virgifera virgifera; conditions: 100 mg per trap, four replicates, 24 hour
Experimental: as §5, with “chemicals (purchased from Aldrich Chemical Co.; Milwaukee, Wis.)” for “chemicals”, “Unless otherwise indicated, all” for “Cinnamyl alcohol, 4-methoxycinnamaldehyde, cinnamyl acetate, and 4-(4′methoxyphenyl)-3-butene-2-one which are solids at ambient temperature were prepared as standard w/v solutions in acetone prior to dosing the cotton wicks. All”
as §6

[16] = system: WCR; conditions: in vivo; cited from earlier work
[17] = August 4, second year, each compound 20 mg per trap
[18] = August 7, second year, each compound 20 mg per trap
[19] = August first year, South Farms, 24 h, single compounds 100 mg per trap, mixture 20 mg of each component
[20] = August first year, single compounds 100 mg per trap, mixture 20 mg each component

COc1ccccc1OC [Veratrole, 1,2-dimethoxybenzene]
relative percent activity (SCR) as compared with the highest mean value for the test date [1, 17]: 15% | Mean number of SCR per trap (±standard deviation) [1, 17]: 5.8 ± 3.4 per trap | relative percent activity (SCR) as compared with the highest mean value for the test date [1, 18]: 20% | Mean number of SCR per trap (±standard deviation) [1, 18]: 8.8 ± 2.l | Mean number of SCR per trap (±standard deviation) [1, 19]: 6.8 ± 3.6 per trap | relative percent activity of the mean SCR trap catch as compared with the highest mean value in the column [1, 20]: 33% | relative percent activity (WCR) as compared with the highest mean value for the test date [2, 17]: 39% | Mean number of WCR per trap (±standard deviation) [2, 17]: 20.0 ± 5.7 per trap | relative percent activity (WCR) as compared with the highest mean value for the test date [2, 18]: 59% | Mean number of WCR per trap (±standard deviation) [2, 18]: 18.5 ± 7.2 per trap | Mean number of WCR per trap (±standard deviation) [2, 19]: 1.5 ± 1.0 per trap | relative percent activity of the mean WCR trap catch as compared with the highest mean value in the column [2, 20]: 22% | mean (±SD) dead SCR beetles for 10 dishes [3]: 63.1±39.9

COc1ccc(C=CC=O)cc1 [XI, 4-methoxycinnamaldehyde]
Mean number of D. barberi per day (±standard deviation) [4]: 1.0 ± 0.8^a per day | Mean number of D. cristata per day (±standard deviation) [5]: 11.0 ± 6.7^b per day | Mean number of D. v. virgifera per day (±standard deviation) [6]: 8.5 ± 5.3^b per day | Mean number of D. u. howardi per day (±standard deviation) [7]: 0.3 ± 0.5^a per day | Mean number of D. barberi per stick trap per day (±standard deviation) in corn ([8]; August 7): 0.3 ± 0.5^a per stick trap per day | Mean number of D. barberi per stick trap per day (±standard deviation) in corn ([8]; August 18): 1.0 ± 0.8^a per stick trap per day | Mean number of D. v. virgifera per stick trap per day (±standard deviation) in corn ([9]; August 7): 375.0 ± 50.0^d per stick trap per day | Mean number of D. v. virgifera per stick trap per day (±standard deviation) in corn ([9]; August 18): 178.8 ± 32.0^c per stick trap per day | Mean number of D. u. howardi per stick trap per day (±standard deviation) in corn ([10]; August 7): 1.5 ± 2.4^a per stick trap per day | Mean number of D. u. howardi per stick trap per day (±standard deviation) in corn ([10]; August 18): 0.0^a per stick trap per day | period over which treated wicks remained highly attractive to WCR ([11]; 100 mg on wick, transferred daily to fresh traps, August sunlight, two heavy rainstorms): ≥ 16 days | Mean number of WCR adults per sticky trap (±standard deviation) after 24 hours ([11]; August 4 second year): 204.7 ± 34.6^e per sticky trap | Mean number of WCR adults per sticky trap (±standard deviation) after 24 hours ([11]; August 5 first year): 143.7 ± 75.3^e per sticky trap | Mean number of WCR (±standard deviation) per sticky trap after 24 hours ([11]; August 7 (Table 11)): 375.0 ± 50.0^c per sticky trap | Mean number of WCR (±standard deviation) per sticky trap after 24 hours ([11]; August 18 (Table 11)): 178.7 ± 31.9^b per sticky trap | Mean number of WCR adults per sticky trap (±standard deviation) after 24 hours ([11]; September 11): 22.2 ± 23.1^b per sticky trap | effectiveness relative to previously described WCR attractants (indole, estragole) ([11]; by LR): about 100 fold | limit of response (LR) for attraction of WCR adults in corn ([11]; on cotton wicks, logarithmically decreasing amounts): ~0.03 mg | Mean number of SCR adults per sticky trap (±standard deviation) after 24 hours ([12]; August 4 second year): 9.0 ± 6.5^b per sticky trap | Mean number of SCR adults per sticky trap (±standard deviation) after 24 hours ([12]; August 5 first year): 42.7 ± 27.6^b per sticky trap | Mean number of SCR (±standard deviation) per sticky trap after 24 hours ([12]; August 7 (Table 11)): 1.5 ± 2.4^a per sticky trap | Mean number of SCR (±standard deviation) per sticky trap after 24 hours ([12]; August 18 (Table 11)): 0.0^a per sticky trap | Mean number of SCR adults per sticky trap (±standard deviation) after 24 hours ([12]; September 11): 1.5 ± 1.3^ab per sticky trap | Mean number of NCR (±standard deviation) per sticky trap after 24 hours ([13]; August 7 (Table 11)): 0.0^a per sticky trap | Mean number of NCR (±standard deviation) per sticky trap after 24 hours ([13]; August 18 (Table 11)): 1.0 ± 0.8^a per sticky trap | Mean number of NCR per trap (± standard deviation) ([14]; Table 15): 6.4 ± 4.9a per trap | Mean number of NCR per trap (± standard deviation) ([14]; Table 17): 2.5 ± 1.9a per trap | Mean number of WCR per trap (±standard deviation) ([15]; Table 15): 567.5 ± 111.6b per trap | Mean number of WCR per trap (± standard deviation), column WCW ([15]; Table 17): 360.2 ± 181.3c per trap | LR for WCR, most effective volatile attractants yet identified [16]: 0.03 mg
